This passage reports IC50 and IC90 results from ChEMBL document CHEMBL4483862, “Open-source discovery of chemical leads for next-generation chemoprotective antimalarials” (2018).

Molecules are shown by their SMILES. A value given as a limit tells only on which side of the number the result lay.

The test system of the assay is Plasmodium berghei. Briefly: Luciferase/luciferin-expressing antifolate-resistant parasites were used to infect a culture of HepG2 cells that were pre-incubated with compounds. Infected hepatocytes emit light due to the luciferase reaction. Assay results are presented as the percent inhibition of light emission compared to control. […]. In kind it is functional. Particulars: sporozoite; for IC90: read-out: LUCIFERASE INFECTION ASSAY - IC90.

The mark [1] stands for this setting: read-out: LUCIFERASE INFECTION ASSAY - IC50.

One may read the IC50 as the concentration that gives 50% inhibition. In general, IC90 refers to the concentration at which the effect reaches the 90% level. In the case of `Nc1ccc(SC(F)(F)F)cc1`, the IC90 is over 10 µM. Moreover, under setting [1], the IC50 was over 10 µM.
As to `CNc1snc(C)c1C(=O)NC(C)c1ccc(OC(F)F)cc1` (centres undefined), the IC90 stood at 9.96 µM. Besides, under setting [1], the IC50 was 8.84 µM.
Turning to `COc1cccc(-c2nc3ccc(NC(=O)Nc4ccc5c(c4)OCO5)cn3n2)c1`, the IC90 is over 10 µM. For the same molecule, under “PBLUC_HILL_SLOPE 3.78, PBLUC_R_SQUARED 0.75, read-out: LUCIFERASE INFECTION ASSAY - IC50”, the IC50 came out at 7.06 µM.
In the case of `CNc1snc(C)c1C(=O)OCCOc1ccccc1C(C)=O`, the IC90 turned out to be 7.06 µM. In addition, the IC50 (HEPG2TOX_HILL_SLOPE 1.35, HEPG2TOX_R_SQUARED 0.846, PBLUC_HILL_SLOPE 3.65, PBLUC_R_SQUARED 0.5, read-out: LUCIFERASE INFECTION ASSAY - IC50) was determined as 3.86 µM.
On to `O=C(NNC(=O)c1ccccc1F)c1ccc(N2CCCC2=O)cc1`, for which the IC90 was over 10 µM. Also, the IC50 under setting [1] was over 10 µM.
Take `Cc1c(C)n(CCCO)c2ncn3nc(-c4ccc(N(C)C)cc4)nc3c12`: the IC90 is 3.79 µM. For the setting “FFLUC_HILL_SLOPE 0.464, FFLUC_R_SQUARED 0.882, PBLUC_HILL_SLOPE 0.457, PBLUC_R_SQUARED 0.781, read-out: LUCIFERASE INFECTION ASSAY - IC50”, the IC50 was 0.0311 µM.
For the molecule `CSc1nc(=O)nc(-c2ccc(Cl)cc2)[nH]1`, the IC90 was over 13 µM. Also, the IC50 under setting [1] was over 13 µM.
In the case of `Cc1cccc(C(=O)Nc2nc3ccc(C)cn3c2C(=O)NCC(C)C)c1`, the 90% effect concentration (IC90) is 3.75 µM. The IC50 (HEPG2TOX_HILL_SLOPE 9.43, HEPG2TOX_R_SQUARED 0.373, PBLUC_HILL_SLOPE 11.3, PBLUC_R_SQUARED 0.193, read-out: LUCIFERASE INFECTION ASSAY - IC50) came out at 3.09 µM.
Regarding `CC(C)c1ccc2cc(C(=O)Nc3ccc4c(c3)NC(=O)CO4)[nH]c2c1`, the 90% effect concentration (IC90) stood at 2.97 µM. Moreover, the concentration for half-maximal inhibition (IC50) (HEPG2TOX_HILL_SLOPE 0.683, HEPG2TOX_R_SQUARED 0.922, PBLUC_HILL_SLOPE 2.26, PBLUC_R_SQUARED 0.558, read-out: LUCIFERASE INFECTION ASSAY - IC50) is 1.13 µM.
As for `OCc1ccc(-c2cnc3ccc(-c4cncnc4)nn23)cc1`, the IC90 worked out at 3.81 µM. Besides, the IC50 (HEPG2TOX_HILL_SLOPE 10.3, HEPG2TOX_R_SQUARED 0.526, PBLUC_HILL_SLOPE 13.6, PBLUC_R_SQUARED 0.613, read-out: LUCIFERASE INFECTION ASSAY - IC50) is 3.24 µM.
Turning to `Cn1cc(Br)c(-c2cccc(NC(=O)Nc3ccc(Cl)cc3)c2)n1`, the IC90 is over 8.13 µM. Besides, the IC50 (HEPG2TOX_HILL_SLOPE 7.05, HEPG2TOX_R_SQUARED 0.913, PBLUC_HILL_SLOPE 7.26, PBLUC_R_SQUARED 0.779, read-out: LUCIFERASE INFECTION ASSAY - IC50) is over 8.13 µM.
Consider `CC1(c2cc(F)ccc2F)NC(=O)N(CC(=O)c2cn(CCC#N)c3ccccc23)C1=O` (centres undefined), for which the IC90 was over 10 µM. Also, the IC50 under setting [1] is over 10 µM.
Turning to `CCCCOc1ccc(/C=N/Nc2ccc([N+](=O)[O-])cc2)cc1`, the 90% effect concentration (IC90) is over 10 µM. Also, the IC50 under setting [1] was over 10 µM.
In the case of `O=C(Nc1nc(-c2ccco2)c(-c2ccco2)s1)c1cnc(Cl)c(Cl)c1`, the IC90 is over 10 µM. For the same molecule, under setting [1], the IC50 was over 10 µM.
With `CCC(C)NC(=O)c1c(NC(=O)c2cccc(C#N)c2)nc2ccc(C)cn12` (centres undefined), the IC90 amounted to 3.79 µM. Where the note is “HEPG2TOX_HILL_SLOPE 2.26, HEPG2TOX_R_SQUARED 0.914, PBLUC_HILL_SLOPE 14.3, PBLUC_R_SQUARED 0.23, read-out: LUCIFERASE INFECTION ASSAY - IC50”, the IC50 worked out at 3.25 µM.
On to `COc1cc(C(=O)N2CC=C(c3c[nH]c4ccccc34)CC2)cc(Cl)c1OC`, for which the IC90 was over 10 µM. Further, for the setting “HEPG2TOX_HILL_SLOPE 1.93, HEPG2TOX_R_SQUARED 0.934, PBLUC_HILL_SLOPE 11.8, PBLUC_R_SQUARED 0.218, read-out: LUCIFERASE INFECTION ASSAY - IC50”, the IC50 stood at 8.9 µM.
Take `O=S(=O)(Nc1cc(-c2ccc(Cl)cc2)nn1-c1ccc(I)cc1)c1cccc(F)c1`: the IC90 is 2.83 µM. Besides, the IC50 (HEPG2TOX_HILL_SLOPE 3.73, HEPG2TOX_R_SQUARED 0.889, PBLUC_HILL_SLOPE 8.27, PBLUC_R_SQUARED 0.455, read-out: LUCIFERASE INFECTION ASSAY - IC50) turned out to be 2.17 µM.
Consider `O=[N+]([O-])c1c(Sc2ccc(Cl)cc2)ccc2nsnc12`, for which the IC90 worked out at 8.49 µM. In addition, for the setting “FFLUC_HILL_SLOPE 1.96, FFLUC_R_SQUARED 0.577, HEPG2TOX_HILL_SLOPE 12.8, HEPG2TOX_R_SQUARED 0.787, PBLUC_HILL_SLOPE 2.81, PBLUC_R_SQUARED 0.465, read-out: LUCIFERASE INFECTION ASSAY - IC50”, the 50% inhibitory concentration (IC50) worked out at 3.88 µM.
On to `CC1(C(=O)NCc2ccco2)Cc2c(-c3ccccc3)ccnc2O1` (centres undefined), for which the IC90 came out at 3.99 µM. Also, the IC50 (HEPG2TOX_HILL_SLOPE 4.72, HEPG2TOX_R_SQUARED 0.753, PBLUC_HILL_SLOPE 10.4, PBLUC_R_SQUARED 0.157, read-out: LUCIFERASE INFECTION ASSAY - IC50) came out at 3.23 µM.
For the molecule `N#CC1=C2Sc3ccccc3N2C(O)(C(F)(F)F)C(C(=O)C(F)(F)F)=C1` (centres undefined), the IC90 stood at 4.76 µM. The IC50 (PBLUC_HILL_SLOPE 9.79, 8.06, PBLUC_R_SQUARED 0.178, 0.335, read-out: LUCIFERASE INFECTION ASSAY - IC50) is 3.71 µM.
In the case of `Cc1cc(N(CCC#N)C(=O)Cn2ncc(Cl)c(Cl)c2=O)ccc1Cl`, the concentration for an effect of 90% (IC90) came out at 5.85 µM. Further, the IC50 under setting [1] was found to be 5.68 µM.
For the molecule `CC(C)(C)NC(=S)Nc1ccccc1N1CCCCC1`, the IC90 is over 11.3 µM. Moreover, the IC50 (HEPG2TOX_HILL_SLOPE 2.33, HEPG2TOX_R_SQUARED 0.936, read-out: LUCIFERASE INFECTION ASSAY - IC50) was over 11.3 µM.
For `Cc1ccc(-c2noc(-c3csc([C@@H]4C[C@H](O)[C@@H](CO)O4)n3)n2)cc1`, the IC90 was over 9.18 µM. The IC50 (PBLUC_HILL_SLOPE 1.21, PBLUC_R_SQUARED 0.165, read-out: LUCIFERASE INFECTION ASSAY - IC50) turned out to be 3.59 µM.
Take `CN(C)CC(C)(C)CNc1nn2cc(-c3ccccc3)nc2s1`: the IC90 is over 10 µM. For the setting “PBLUC_HILL_SLOPE 0.619, PBLUC_R_SQUARED 0.654, read-out: LUCIFERASE INFECTION ASSAY - IC50”, the IC50 amounted to 0.732 µM.
`Fc1ccc(-c2cnn3c(NCc4cccs4)ccnc23)cc1Cl`: the 90% effect concentration (IC90) amounted to 7.94 µM. Also, the IC50 (PBLUC_HILL_SLOPE 0.723, PBLUC_R_SQUARED 0.681, read-out: LUCIFERASE INFECTION ASSAY - IC50) came out at 0.38 µM.
On to `CSc1nccc(-c2ccc3c(c2)CCC(C)(C)O3)n1`, for which the IC90 was 11 µM. Further, under “PBLUC_HILL_SLOPE 0.747, PBLUC_R_SQUARED 0.886, read-out: LUCIFERASE INFECTION ASSAY - IC50”, the IC50 was found to be 0.583 µM.
With `CCCn1c(NC(=O)c2ccc3ccccc3n2)nc2ccccc21`, the IC90 is 3.56 µM. The IC50 (PBLUC_HILL_SLOPE 15.7, PBLUC_R_SQUARED 0.527, read-out: LUCIFERASE INFECTION ASSAY - IC50) is 3.1 µM.
